# Literature values as cited in patent US20040180034A1, “Anthelmintic resinates and a method for their preparation” (priority 2003, published 2004).
smiles,measurement,setting,value
"O=C(C1CCCCC1)N1CC(=O)N2CCc3ccccc3C2C1 (centres unmarked) [Praziquantel, 4H-Pyrazino[2,1-a]isoquinolin-4-one, 2-(cyclohexylcarbonyl)-1,2,3,6,7,11b-hexahydro-(9CI)]","cats experiencing weakness, salivation, or nausea",after injection,approximately one cat in ten
same,animals experiencing nausea,oral form,at least one out of twenty
